Results published in patent US9776979B2, “EBI2 modulators” (Sanford-Burnham Medical Research Institute, priority 2013, dated 2017).

These molecules were tested against EBI2 (Homo sapiens, UniProt P32249) (assay: Cell-based luminescent assay (EBI2 modulation)). Details: cell-based luminescence; 7a,25-OHC final assay concentration 80 nM; 60 minutes incubation; read-out: IC50.
Experimental: Cell-Based Luminescent Assay
To assess EBI2 modulation, the compounds described herein were assayed in the following cell-based luminescent assay:
1) Plated 600 cells/well in 4 uL of assay media into columns 1-48 of a 1536-well assay plate, using a liquid dispenser.
2) Centrifuged plates at 1000 rpm for 1 minute and covered with lids.
3) Incubated overnight at 37° C., 100% relative humidity, 5% CO2.
1) Centrifuged compound plates containing compounds described herein at 500 rpm for 1 minute.
2) Added compounds into assay plate col 5-48 to final concentration 4-5 uM. Added matching amount of DMSO to positive and negative control wells in columns 1-4.
3) Dispensed 2 ul/well of assay media to columns 1-2 for the positive control wells.
4) Added 2 ul/well of 400 nM 7a,25-OHC (final assay concentration=80 nM) in assay media to columns 3-48 for the negative control and test compound wells.
5) Centrifuged plates at 1000 rpm for 1 minute and re-lid plates.
6) Incubated plates at 37° C., 100% relative humidity, 5% CO2 for 60 minutes.
7) Following 60 minute incubation, delivered 2.5 uL of Detection Reagent solution to each assay plate (Columns 1-48) using a liquid handler.
8) Centrifuged plates at 2000 rpm for 2 minutes and re-lid plates.
9) Incubated plates for 60 minutes at 25 degrees in the dark.
10) Read plates using the Viewlux, Envision or other suitable plate reader using a luminescence detection.
The experimental values were normalized by the difference between values from neutral and stimulator control wells in each plate. Then normalized data was corrected to remove systematic plate patterns due to artifacts such as dispensing tip issues etc.

Sequence of EBI2 (P32249 whole entry): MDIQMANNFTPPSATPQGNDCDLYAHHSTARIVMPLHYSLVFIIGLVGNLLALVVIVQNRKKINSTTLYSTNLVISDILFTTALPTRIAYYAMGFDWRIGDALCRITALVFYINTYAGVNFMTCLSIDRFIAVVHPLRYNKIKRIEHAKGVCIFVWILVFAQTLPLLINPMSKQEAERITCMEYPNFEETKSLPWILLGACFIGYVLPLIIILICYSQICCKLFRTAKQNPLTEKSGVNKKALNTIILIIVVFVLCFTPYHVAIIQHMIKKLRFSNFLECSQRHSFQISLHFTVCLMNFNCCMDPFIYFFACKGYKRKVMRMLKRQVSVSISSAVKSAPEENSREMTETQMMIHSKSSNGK

Row | IC50 [µM] | Molecule
1 | < 0.1 | Cc1cccc(N2CCN(C(=O)c3cc4cc(Cl)ccc4[nH]3)CC2)c1C [Compound C400, 4-(2,3-dimethylphenyl)piperazinyl 5-chloroindol-2-yl ketone]
2 | < 0.1 | 3-(2,3-dichlorophenyl)-1-[4-(diphenylmethyl)piperazinyl]prop-2-yn-1-one [Compound C25]
3 | < 0.1 | O=C(/C=C/c1ccccc1)N1CCN(Cc2cccc3ccccc23)CC1 [Compound C308, (2E)-1-[4-(naphthylmethyl)piperazinyl]-3-phenylprop-2-en-1-one]
4 | < 0.1 | O=C(C#Cc1ccc2c(c1)OCO2)N1CCN(C(=O)c2ccc(C(F)(F)F)cc2)CC1 [Compound C266, 3-(2H-benzo[3,4-d]1,3-dioxolen-5-yl)-1-(4-{[4-(trifluoromethyl)phenyl]carbonyl}piperazinyl)prop-2-yn-1-one]
5 | < 0.1 | COc1ccc(C(=O)N2CCN(C(=O)C=Cc3ccc4c(c3)OCO4)CC2)cc1 [Compound C256, 3-(2H-benzo[3,4-d]1,3-dioxolen-5-yl)-1-{4-[(4-methoxyphenyl)carbonyl]piperazinyl}prop-2-en-1-one]
6 | < 0.1 | O=C(c1cc2ccc(F)cc2[nH]1)N1CCN(C(c2ccccc2)c2ccccc2)CC1 [Compound C215, 4-(diphenylmethyl)piperazinyl 6-fluoroindol-2-yl ketone]
7 | < 0.1 | O=C(C#Cc1ccc(F)cc1)N1CCN(C(=O)c2ccc(Cl)cc2)CC1 [Compound C69, 1-{4-[(4-chlorophenyl)carbonyl]piperazinyl}-3-(4-fluorophenyl)prop-2-yn-1-one]
8 | 0.1 to 0.5 | O=C(c1cc2cc(Cl)ccc2[nH]1)N1CCN(Cc2ccc(F)cc2F)CC1 [Compound C427, 4-[(2,4-difluorophenyl)methyl]piperazinyl 5-chloroindol-2-yl ketone]
9 | < 0.1 | O=C(/C=C/c1ccccc1)N1CCN(Cc2ccccc2Cl)CC1 [Compound C374, (2E)-1-{4-[(2-chlorophenyl)methyl]piperazinyl}-3-phenylprop-2-en-1-one]
10 | < 0.1 | O=C(/C=C/c1ccc(F)cc1)N1CCN(S(=O)(=O)C2=Cc3ccccc3CC2)CC1 [Compound C22, (2E)-1-[4-(2-3,4-dihydronaphthylsulfonyl)piperazinyl]-3-(4-fluorophenyl)prop-2-en-1-one]
11 | < 0.1 | O=C(/C=C/c1ccc(F)cc1)N1CCN(S(=O)(=O)c2ccc(Br)cc2)CC1 [Compound E2, (2E)-1-{4-[(4-bromophenyl)sulfonyl]piperazinyl}-3-(4-fluorophenyl) prop-2-en-1-one]
12 | < 0.1 | O=C(C#Cc1cccc(Cl)c1Cl)N1CCN(C(=O)c2ccc(F)cc2)CC1 [Compound C18, 3-(2,3-dichlorophenyl)-1-{4-[(4-fluorophenyl)carbonyl]piperazinyl}prop-2-yn-1-one]
13 | 0.1 to 0.5 | O=C(c1ccc(C(F)(F)F)cc1)N1CCN(C(=O)c2cc3ccc(F)cc3[nH]2)CC1 [Compound C292, 6-fluoroindol-2-yl 4-{[4-(trifluoromethyl)phenyl]carbonyl}piperazinyl ketone]
14 | < 0.1 | O=C(/C=C/c1ccc(F)cc1)N1CCN(C(c2ccccc2)c2ccccc2)CC1 [Compound C68, (2E)-1-[4-(diphenylmethyl)piperazinyl]-3-(4-fluorophenyl)prop-2-en-1-one]
15 | 0.1 to 0.5 | (2E)-3-phenyl-1-[4-(4-pyridylmethyl)piperazinyl]prop-2-en-1-one [Compound C466]
16 | < 0.1 | O=C(C#Cc1cccc(Cl)c1Cl)N1CCN(Cc2ccc(F)cc2)CC1 [Compound C262, 3-(2,3-dichlorophenyl)-1-{4-[(4-fluorophenyl)methyl]piperazinyl}prop-2-yn-1-one]
17 | 0.1 to 0.5 | 4-[(2,4-difluorophenyl)methyl]piperazinyl 5-(trifluoromethyl)indol-2-yl ketone [Compound C412]
18 | < 0.1 | COC(=O)c1ccc(C(=O)N2CCN(C(=O)c3cc4cc(Cl)ccc4[nH]3)CC2)cc1 [Compound C62, methyl 4-({4-[(5-chloroindol-2-yl)carbonyl]piperazinyl}carbonyl)benzoate]
19 | 0.5 to 5 | Cc1ccccc1/C=C/C(=O)N1CCN(S(=O)(=O)c2ccccc2)CC1 [Compound C196, (2E)-3-(2-methylphenyl)-1-[4-(phenylsulfonyl)piperazinyl]prop-2-en-1-one]
20 | < 0.1 | COc1ccc(C(=O)N2CCN(C(=O)C#Cc3ccc(C)cc3)CC2)cc1 [Compound C8, 1-{4-[(4-methoxyphenyl)carbonyl]piperazinyl}-3-(4-methylphenyl)prop-2-yn-1-one]

The remaining lines, values behind:

Row | Molecule | IC50 [µM]
21 | O=C(c1ccc2ccccc2n1)N1CCN(C(c2ccccc2)c2ccccc2)CC1 [Compound C351, 4-(diphenylmethyl)piperazinyl 2-quinolyl ketone] | < 0.1
22 | 3-(3,5-difluorophenyl)-1-[4-(diphenylmethyl)piperazinyl]prop-2-yn-1-one [Compound C419] | 0.1 to 0.5
23 | O=C(/C=C/c1ccc(Br)cc1)N1CCCN(S(=O)(=O)/C=C/c2ccccc2)CC1 [Compound C355, (2E)-1-{4-[((1E)-2-phenylvinyl)sulfonyl](1,4-diazaperhydroepinyl)}-3-(4-bromophenyl)prop-2-en-1-one] | < 0.1
24 | O=C(c1ccccc1)N1CCN(C(=O)c2cc3cc(Cl)ccc3[nH]2)CC1 [Compound C243, 5-chloroindol-2-yl 4-(phenylcarbonyl)piperazinyl ketone] | < 0.1
25 | O=C(/C=C/c1ccccc1)N1CCN(Cc2ccccc2Br)CC1 [Compound C344, (2E)-1-{4-[(2-bromophenyl)methyl]piperazinyl}-3-phenylprop-2-en-1-one] | < 0.1
26 | 4-{[(4-bromophenyl)sulfonyl]amino}piperidyl 5-chloroindol-2-yl ketone [Compound C306] | < 0.1
27 | O=C(c1cc2cc(Cl)ccc2[nH]1)N1CCN(C(=O)c2cccnc2Cl)CC1 [Compound C285, 4-[(2-chloro(3-pyridyl))carbonyl]piperazinyl 5-chloroindol-2-yl ketone] | 0.1 to 0.5
28 | O=C(C#Cc1cccc(Cl)c1)N1CCN(C(=O)c2ccc(C(F)(F)F)cc2)CC1 [Compound C117, 3-(3-chlorophenyl)-1-(4-{[4-(trifluoromethyl)phenyl]carbonyl}piperazinyl)prop-2-yn-1-one] | < 0.1
29 | N-(4-bromophenyl){4-[(5-chloroindol-2-yl)carbonyl]piperazinyl}carboxamide [Compound C445] | 0.1 to 0.5
30 | (2E)-1-[4-(diphenylmethyl)piperazinyl]-3-(4-bromophenyl)prop-2-en-1-one [Compound C27] | < 0.1
31 | O=C(/C=C/c1ccc(Br)cc1)N1CCN(Cc2ccc(F)cc2C(F)(F)F)CC1 [Compound C131, (2E)-3-(4-bromophenyl)-1-(4-{[4-fluoro-2-(trifluoromethyl)phenyl]methyl}piperazinyl)prop-2-en-1-one] | < 0.1
32 | O=C(/C=C/c1ccc(Cl)c(Cl)c1)N1CCN(Cc2ccc(C(F)(F)F)cc2)CC1 [Compound D3, (2E)-3-(3,4-dichlorophenyl)-1-(4-{[4-(trifluoromethyl)phenyl]methyl}piperazinyl)prop-2-en-1-one] | < 0.1
33 | O=C(c1cc2cc(Cl)ccc2[nH]1)N1CCC(NC2CCCC2)CC1 [Compound C449, 5-chloroindol-2-yl 4-(cyclopentylamino)piperidyl ketone] | 0.1 to 0.5
34 | O=C(C#Cc1ccc(Cl)cc1)N1CCN(C(=O)c2ccc(F)cc2C(F)(F)F)CC1 [Compound C399, 3-(4-chlorophenyl)-1-(4-{[4-fluoro-2-(trifluoromethyl)phenyl]carbonyl}piperazinyl)prop-2-yn-1-one] | < 0.1
35 | O=C(c1ccc(Cl)cc1)N1CCN(C(=O)c2cc3ccc(F)cc3[nH]2)CC1 [Compound C366, 4-[(4-chlorophenyl)carbonyl]piperazinyl 6-fluoroindol-2-yl ketone] | 0.1 to 0.5
36 | O=C(c1cc2cc(Cl)ccc2[nH]1)N1CCN(C(c2ccccc2)c2ccccc2)CC1 [Compound C56, 4-(diphenylmethyl)piperazinyl 5-chloroindol-2-yl ketone] | < 0.1
37 | COc1cc2cc(C(=O)N3CCN(C(c4ccccc4)c4ccccc4)CC3)[nH]c2cc1OC [Compound C280, 5,6-dimethoxyindol-2-yl 4-(diphenylmethyl)piperazinyl ketone] | 0.1 to 0.5
38 | O=C(c1cc2ccccc2o1)N1CCN(Cc2ccc3c(c2)OCO3)CC1 [Compound C452, 4-(2H-benzo[d]1,3-dioxolan-5-ylmethyl)piperazinyl benzo[d]furan-2-yl ketone] | 0.1 to 0.5
39 | O=C(c1ccc(C(F)(F)F)cc1)N1CCN(C(=O)c2cc3cc(Br)ccc3[nH]2)CC1 [Compound C140, 5-bromoindol-2-yl 4-{[4-(trifluoromethyl)phenyl]carbonyl}piperazinyl ketone] | < 0.1
40 | 3-(3,5-difluorophenyl)-1-(4-{[4-(trifluoromethyl)phenyl]carbonyl}piperazinyl)prop-2-yn-1-one [Compound C398] | 0.1 to 0.5
41 | O=C(c1csc2ccccc12)N1CCN(C(c2ccccc2)c2ccccc2)CC1 [Compound C290, benzo[b]thiophen-3-yl 4-(diphenylmethyl)piperazinyl ketone] | 0.1 to 0.5
